We go through 88 compounds from a melting point compilation (Tetko et al.; mined from patent text by program, amines drawn as free bases though some values may be those of a salt).

In the case of `CON(C)S(=O)(=O)NC(=O)Nc1nc(C)cc(C)n1`, the melting point – broadly, the temperature, or range, at which the solid turns liquid – is 152 °C.

The compound `O=C(CN1C(=O)c2ccccc2C1=O)c1ncc(C(F)(F)F)cc1Cl` came in with a melting point of 162 °C.

Consider `Cc1ccc(S(=O)(=O)OC2COc3ccc4ncccc4c3C2)cc1` (stereo not drawn), for which the melting point lay in the range of 168 to 170 °C.

Compound `Cn1nc(Cc2ccc(O)c(Cl)c2Cl)c(Cl)c1OC(F)F` displayed a melting point of 127 to 128 °C.

In the case of `CSCCOc1ccccc1NN`, the melting point was 72.5 to 74.5 °C.

Compound `NCCCCn1cnc2c(N)ncnc21` gave a melting point of 62 to 64 °C.

`CC(C)(C)c1cc(C(=O)NCc2cccc([N+](=O)[O-])c2)cc(C(C)(C)C)c1O` yielded a melting point of 210 to 211 °C.

Turning to `CCN(C(=O)Cc1c(F)cccc1F)C(c1cnccc1C(F)(F)F)C(C)C` (stereo not drawn), the melting point is 122 °C.

`COc1cc2c(cc1Cl)CCN(C)CC2c1ccc(Br)cc1` (stereo not drawn) showed a melting point of 116 to 118 °C.

Consider `Cc1nc2cc(Oc3ncccc3C(=O)NCc3ccc(C(C)(C)O)cc3)ccc2s1`, for which the melting point is 124 to 126 °C.

In the case of `Nc1cc(Cl)cc(Cl)c1C(=O)NCc1ccccc1F`, the melting point was in the range of 154 to 158 °C.

As to `CNC1Cc2ccccc2C1Nc1ccccc1` (stereo not drawn), the melting point was 121 to 122 °C.

As to `CCN(CC)C(=O)NC1CC2c3cccc4[nH]c(C(=O)OCc5ccccc5)c(c34)CC2N(C)C1` (stereo not drawn), the melting point fell in the range of 226 to 229 °C.

In the case of `O=C(NC1CCSC2COCC(C(=O)O)N2C1=O)C(S)Cc1ccccc1` (stereo not drawn), the melting point is 224 to 226 °C.

`CC(C)(C)c1ccc(CCCC(=O)CC2CCCCC2)cc1NC(=O)CC1c2ccccc2Oc2ccccc21` had a melting point of 193 to 194 °C.

Turning to `CCCCCCCCCCC1COc2c(C(=O)OCC)sc(C(=O)OCC)c2O1` (stereo not drawn), the melting point lay in the range of 89 to 90 °C.

Compound `CCCN(CCCCc1c[nH]c2ccc(F)cc12)C1COc2c(F)ccc(C(N)=O)c2C1` (stereo not drawn) yielded a melting point of 115 °C.

On to `COc1cc2ccc(C=O)cc2cc1OC`, for which the melting point was in the range of 87 to 88 °C.

`COC(=O)Nc1cn2cc(S(=O)c3ccccn3)ccc2n1` (stereo not drawn) showed a melting point of 231 to 235 °C.

The compound `O=C1N(Cc2ncccc2C(F)(F)F)c2ccccc2C12COc1cc3[nH]ncc3cc12` (stereo not drawn) came in with a melting point of 152 to 154 °C.

The compound `CNC(=O)CCN1CCC(C(O)(c2ccc(F)cc2)c2ccc(F)cc2)CC1` yielded a melting point of 127 to 129 °C.

As for `COC(=O)c1ccc(C(=S)Nc2ccccc2OC)cc1`, the melting point lay within 105 to 107 °C.

`Cc1ccccc1S(=O)(=O)c1cc2c(cc1C)OC(C(=O)O)O2` (stereo not drawn) registered a melting point of 178 to 180 °C.

As for `Cc1c(Cc2cccnc2)sc2cc(Br)ccc12`, the melting point was 69 to 70 °C.

Compound `CCCn1cc(C(=O)c2cccc3cc(OC)ccc23)c2ccccc21` gave a melting point of 139 to 140 °C.

The compound `NC(=O)c1nc(-c2cccc(O)c2)nc2c1[nH]c(=O)n2-c1ccc(C(F)(F)F)cc1` displayed a melting point of 360 to 364 °C.

Compound `Cc1ccc(F)c(-c2cncc(OC3SCC(O)C(O)C3O)c2)c1` (stereo not drawn) registered a melting point of 198 °C.

In turn, `COc1ccc(-c2nc3ccc(C(C)(C)CNS(C)(=O)=O)cc3[nH]2)cc1` yielded a melting point of 146 to 148 °C.

`C=C=CC1(OC(C)=O)CCC2C3CCc4cc(OC)ccc4C3CCC21C` (stereo not drawn) gave a melting point of 89 to 90 °C.

Take `COc1cc(-c2ccc(NN)nn2)ccc1OC(F)F`: the melting point was 154 °C.

In turn, `COC(=O)C1CCCCCCCSC[C@@H](C(=O)OC)NC1=O` (stereo partly drawn) showed a melting point of 156 to 164 °C.

Compound `Cc1cc(O)c(C23CC4CC(CC(C4)C2)C3)cc1-c1cccc(C=C2SC(N3CCOCC3)=NC2=O)c1` returned a melting point of 327 to 329 °C.

Compound `Cn1cncc1C(O)(c1ccc(Cl)cc1)c1ccc2c(c1)c(CCc1cccc(Cl)c1)cc(=O)n2C` (stereo not drawn) came in with a melting point of 190 °C.

Turning to `Cc1cc(CON2C(=O)c3ccccc3C2=O)on1`, the melting point is 129 to 131 °C.

Turning to `COc1ccc(N=Nc2ccc(O)c(C(N)=O)c2)cc1`, the melting point fell in the range of 231 to 233 °C.

Regarding `COC(=O)Cc1ccccc1OCc1ccc(OCCc2nc(-c3ccccc3)oc2C)nc1`, the melting point was in the range of 78 to 79 °C.

With `COc1cc(CC(N)=O)cc(OC(F)F)c1OC`, the melting point was 104 to 105 °C.

As for `Cc1nc2ccccc2n1CCOCCCl`, the melting point was in the range of 96 to 98 °C.

Take `Cc1ccc(NC(=O)NCC2(c3ccccc3)CCCCC2)cc1`: the melting point was 135 to 137 °C.

In turn, `CC(NC(=O)CCCCCCCCC#CC#CCCCCCCCCC(=O)NC(C)c1ccccc1)c1ccccc1` (stereo not drawn) had a melting point of 87.5 to 89 °C.

In the case of `O=C(Nc1ccc(Cl)cc1)Nc1ccc2c(c1)OC(F)(F)O2`, the melting point is 231 to 233 °C.

`Cc1cc(-c2nc3ccccc3c(=O)n2-c2ccc(C(C)C)cc2)cc(C)c1OCCO` registered a melting point of 160 to 162 °C.

For the compound `COC(=O)c1ccc(Cn2nc(C(C)(C)C)cc2C(C)(C)C)cc1`, the melting point was in the range of 135 to 136 °C.

In the case of `COc1cc2c(c(OC)c1/C=C/c1ccc(C=O)cc1)C(C)(C)CCC2(C)C`, the melting point stood at 108 °C.

In turn, `O=C(c1cccc(C(=O)c2ccc(F)c([N+](=O)[O-])c2)c1)c1ccc(F)c([N+](=O)[O-])c1` registered a melting point of 148 to 149 °C.

Regarding `COC(=O)c1ccccc1S(=O)(=O)NC(=O)N1NC(=O)N(O)C1OC` (stereo not drawn), the melting point came out at 180 °C.

In turn, `CCOC(=O)c1cnc2cc(Br)c(F)cc2c1O` registered a melting point of more than 280 °C.

Regarding `CN=C(N)Nc1nc(CSCCNC2=NS(=O)N=C2N)cs1` (stereo not drawn), the melting point lay in the range of 86 to 91 °C.

Take `CCCCCCCCCC1OC1CO` (stereo not drawn): the melting point fell in the range of 55 to 56 °C.

The compound `Cc1noc(NS(=O)(=O)c2ccccc2F)c1Br` returned a melting point of 87 to 89 °C.

Regarding `CSc1nn2c(N)cc(C)nc2c1S(=O)(=O)c1ccc(I)cc1`, the melting point is more than 230 °C.

As to `COc1ccc(CN(C)CCCc2ccc(NC(=O)c3cccc4c(=O)c5cc(F)ccc5sc34)cc2)cc1OC`, the melting point is 160 °C.

`CC(C)(C)C(=O)N[C@H]1CC[C@H](CCN2CCC(c3cccc4c3CCO4)CC2)CC1`: the melting point was 192 °C.

As for `Oc1cnc2cc(C(F)(F)F)ccc2n1`, the melting point was found to be 260 °C.

The compound `COc1c(CS(C)(=O)=O)cnc2ccccc12` had a melting point of 151 to 154 °C.

Compound `Cc1[nH]c(=O)n(-c2cc(C(=O)OC(C)C)c(Cl)cc2F)c(=O)c1I` displayed a melting point of 211 to 213 °C.

`N#CCC[C@H]1CC[C@@H](c2ccc(F)cc2)N1S(=O)(=O)c1ccc(Cl)cc1` (racemic) displayed a melting point of 108 °C.

With `O=C1CCc2ccc(OC/C=C/CN3CCN(c4cccc(Cl)c4Cl)CC3)cc2N1`, the melting point lay within 151 to 152 °C.

As for `CC(=O)NN[C@@H]1c2cc(C#N)ccc2OC(C)(C)[C@H]1O` (relative stereo), the melting point was 209 to 210 °C.

`COc1ccccc1Cc1n[nH]c2c1c(=O)n(-c1ccccc1)c1ncccc21` displayed a melting point of 276 to 277 °C.

The compound `CCCn1nc2c(N)nc3ccccc3c2c1CC(C)(C)NC(=O)c1ccc(F)c(F)c1` yielded a melting point of 165 to 166 °C.

Compound `CC(C)(C)c1ccc(OC(CC(=O)O)C(=O)O)c(C(C)(C)C)c1` (stereo not drawn) gave a melting point of 177 to 181 °C.

In turn, `Cc1ccc(O)c(Cn2c(N)nc3ccc(CNc4cccc(OC(F)(F)F)c4)cc32)n1` had a melting point of 156 °C.

`CC(C)(C)N(NC(=O)c1ccccc1)C(=S)c1ccccc1` came in with a melting point of 169 to 171 °C.

In turn, `O=C(Nc1ncnc2c1c(Cl)cn2C1CC(O)C(CO)O1)c1ccccc1` (stereo not drawn) displayed a melting point of 190 °C.

Take `CCCCCCCCCCCCCC(=O)N[C@H](C(=O)O)C(C)C`: the melting point was 88 to 89 °C.

Compound `Cc1c(C(=O)NC2(C(=O)O)Cc3cccc(Br)c3C2)oc2cc(-c3ccc(Cl)cc3)ccc12` (stereo not drawn) gave a melting point of 230 °C.

As to `CC(C)Oc1nn(CCO)cc1C(=O)NCc1ccc(Cl)cc1Cl`, the melting point lay within 122 to 123 °C.

In the case of `Cc1[nH]c2cccc3c2c1CC1C3CC(N)CN1C` (stereo not drawn), the melting point was found to be 240 °C.

Take `C[C@@H](n1cnn(-c2ccc(OC(F)(F)C(F)F)cc2)c1=O)[C@@]1(c2ccc(F)cc2F)CO1`: the melting point was in the range of 105 to 106 °C.

Regarding `COc1ccc(S(=O)(=O)Nc2ccccc2N)cc1`, the melting point lay within 141 to 142 °C.

In turn, `Cc1ccc(C(=O)c2ccc(F)cc2)nc1` displayed a melting point of 127 to 128 °C.

Compound `COC(=O)C1=C(C)NC(C)=C(C(=O)N2CCC3(CC2)CC(=O)N(OC)C3=O)C1c1cccc([N+](=O)[O-])c1` (stereo not drawn) registered a melting point of 228 to 230 °C.

In turn, `CC(=O)NCC(C)(C)c1ccc2nc(-c3ccncc3)[nH]c2c1` registered a melting point of 219 to 225 °C.

Compound `O=C(CBr)Nc1cc(Cl)ccc1C(=O)O` had a melting point of 156 to 158 °C.

As to `CC(=O)Nc1ccc(/C=C/C(=O)N2CC(CCl)c3c2cc(N)c2ccccc32)cc1` (stereo not drawn), the melting point was more than 250 °C.

Turning to `CCCCCc1ccc(-c2ccc(N)cc2)nc1`, the melting point lay in the range of 60.3 to 61.3 °C.

In turn, `CCOc1cc(OCCCc2cn(-c3cc(C(F)(F)F)ccn3)nc2OCC)ccc1CCC(=O)OC` gave a melting point of 79 to 81 °C.

`CCCNC(=O)ON(C(=O)NCCC)C(=O)C1CC1` registered a melting point of 76 to 78 °C.

The compound `CCCCC(CC)CN1C(=O)C(=Cc2cc3sc(-c4ccc(N(c5ccccc5)c5ccccc5)cc4)cc3s2)C(C)=C(C#N)C1=O` (stereo not drawn) had a melting point of 208 to 213 °C.

Turning to `CC(C)CN(C(=O)N(CCCl)N=O)C1O[C@H](CO)[C@H](O)[C@H](O)[C@H]1O` (stereo partly drawn), the melting point lay within 48 to 53 °C.

Turning to `CCOC(=O)CC1CCc2[nH]c3ccccc3c2C1` (stereo not drawn), the melting point was in the range of 122 to 123 °C.

`NCC(=NNc1ccccc1)c1ccccc1`: the melting point is 106 to 108 °C.

`O=c1[nH]c2ccccc2n1CCCCN1CCC(O)(c2ccc(Cl)cc2)CC1`: the melting point amounted to 161 °C.

Turning to `Cc1cc(OCc2ccccc2)c(C)c([N+](=O)[O-])c1`, the melting point was 66 to 68 °C.

Turning to `Cc1c(C)c(C)c(S(=O)(=O)NCCc2ccc(C(=CCCCC(=O)O)c3cccnc3)cc2)c(C)c1C`, the melting point is 158 to 160 °C.

With `CC1(C)N=C(c2ccccc2Cl)c2cc([N+](=O)[O-])ccc2NC1=O`, the melting point was in the range of 125 to 127 °C.

Consider `CC(C(=O)O)c1ccc(-c2ccc(O)cc2)c(F)c1` (stereo not drawn), for which the melting point lay in the range of 195 to 197 °C.
